This note sets out measurements from ChEMBL document CHEMBL2146461, “Synthesis and antiplasmodial activity of new heteroaryl derivatives of 7-chloro-4-aminoquinoline” (Bioorg Med Chem, 2012).

A short description of data set [1]: Lipophilicity, log P of the compound at pH 7.4. The settings on record: buffer, read-out: logP. The format is physicochemical.
The subject of data set [2] is Plasmodium falciparum. The data set is described as follows: Antiplasmodial activity against chloroquine-resistant Plasmodium falciparum W2 infected in human red blood cells after 72 hrs by parasite lactate dehydrogenase assay. The format is functional, organism-based. The conditions noted are these: W2, 72 h.
Data set [3] is described as follows: Dissociation constant, pKa of the compound. The data set is classed as physicochemical.
Data set [4] in a line: Resistance index, ratio of IC50 for chloroquine-resistant Plasmodium falciparum W2 to IC50 for chloroquine-sensitive Plasmodium falciparum D10. The format is functional.
Data set [5] can be described thus: n-octanol-KCl distribution coefficient, log D of the compound at pH 7.4. The data set is classed as physicochemical.
Data set [6] relates to Plasmodium falciparum. The data set is described as follows: Antiplasmodial activity against chloroquine-sensitive Plasmodium falciparum D10 infected in human red blood cells after 72 hrs by parasite lactate dehydrogenase assay. The data set is classed as functional, organism-based. The settings on record: D10, 72 h.
Data set [7] concerns Plasmodium falciparum. Briefly: Ratio of chloroquine IC50 to compound IC50 for chloroquine-sensitive Plasmodium falciparum D10. The data set is classed as functional.
Data set [8] deals with Plasmodium falciparum. Briefly: Ratio of chloroquine IC50 to compound IC50 for chloroquine-resistant Plasmodium falciparum W2. The format is functional.

The term logP denotes a log measure of how a compound divides between an organic and an aqueous phase. What is called IC50 is the concentration that gives 50% inhibition. High values mean weaker potency, low ones greater potency. By pKa is commonly meant the pH at which an ionisable group is half protonated. High values mean a weaker acid or stronger base, low ones a stronger acid or weaker base. By logD is commonly meant the decadic logarithm of the distribution of all forms, ionised or not, between an organic phase and buffer at a given pH. Read a high logD as a more lipophilic compound. `Clc1ccc2c(NCc3nc(-c4ccccc4)co3)ccnc2c1`: the lipophilicity (logP) in data set [1] was 4.85. Further, the figures for the 50% inhibitory concentration (IC50) with Plasmodium falciparum [2] and with Plasmodium falciparum [6] were 513 nM and 270 nM, respectively. The compound further registered a pKa in data set [3] of 6.36. The Ratio IC50 in data set [4] was 1.9; in the data set on Plasmodium falciparum [7] it was 0.05; in the data set on Plasmodium falciparum [8], 0.84. The logD in data set [5] amounted to 4.81.
For `Clc1ccc2c(NCc3nc(-c4ccccc4)cs3)ccnc2c1`, in data set [1], the logP is 5.2. Besides, the concentration for half-maximal inhibition (IC50) stood at 396 nM in the data set with Plasmodium falciparum [2] and 212 nM in the data set on Plasmodium falciparum [6]. The pKa in data set [3] worked out at 6.45. For the same compound, the Ratio IC50 was determined as 1.9 in data set [4], 0.07 with Plasmodium falciparum [7] and 1.09 in the data set with Plasmodium falciparum [8]. This compound returned a logD in data set [5] of 5.15.
